# Test results: patent US10105410B2, “Heparanase inhibitory peptides and use thereof for treating clinical pathologies” (RAMBAM MED-TECH LTD., priority 2014, dated 2018)
# B1: heparanase: Single chain GS3 heparanase construct comprising the 8 and 50 kDa subunits, purified from baculovirus-infected cells (protein)
# chain: QDVVDLDFFTQEPLHLVSPSFLSVTIDANLATDPRFLILLGSPKLRTLARGLSPAYLRFGGTKTDFLIFDPKKESTFEERSYWQSQVNQDICKYGSIPPDVEEKLRLEWPYQEQLLLREHYQKKFKNSTYSRSSVDVLYTFANCSGLDLIFGLNALLRTADLQWNSSNAQLLLDYCSSKGYNISWELGNEPNSFLKKADIFINGSQLGEDFIQLHKLLRKSTFKNAKLYGPDVGQPRRKTAKMLKSFLKAGGEVIDSVTWHHYYLNGRTATKEDFLNPDVLDIFISSVQKVFQVVESTRPGKKVWLGETSSAYGGGAPLLSDTFAAGFMWLDKLGLSARMGIEVVMRQVFFGAGNYHLVDENFDPLPDYWLSLLFKKLVGTKVLMASVQGSKRRKLRVYLHCTNTDNPRYKEGDLTLYAINLHNVTKYLRLPYPFSNKQVDKYLLRPLGPHGLLSKSVQLNGLTLKMVDDQTLPPLMEKPLRPGSSLGLPAFSYSFFVIRNAKVAACI
# Tests used:
# IVC thrombus = experiment: Inferior vena cava (IVC) thrombosis model; format: in vivo, mice; conditions: 2 mg/kg s.c. immediately before IVC exposure; no heparanase injected
# Protocol: A large thrombus located distal to the IVC ligation (FIG. 6A, panel I) and after IVC was harvested (FIG. 6A, panel II), was observed. This observation was verified by H&E staining (FIG. 6A, panel III, ×10; FIG. 6A, panel IV, ×100). In subsequent experiments, peptides 3, 4 and 5 were introduced subcutaneously, at a dose of 2 mg/kg, immediately before the IVC exposure. Heparanase was not injected in this line of experiments. Each experimental group included 5 mice. The IVC was re-exposed (FIG. 6A, panel V) and then dissected (FIG. 6A, panel VI). Note that only engorged blood was present and thrombus distal to the IVC ligation was absent. This observation was verified by H&E staining (FIG. 6A, panel VII, ×10; FIG. 6A, panel VIII, ×100). […] Images were visualized through a 0.82 MDC objective lens, captured with a Nikon […] digital camera (Nikon, Tokyo, Japan), and processed with Adobe Photoshop software (Adobe Systems, San Jose, Calif.).
# [1] = system: arterial thrombus in the carotid artery; experiment: Carotid artery 90% stenosis arterial thrombosis, MSB staining; format: in vivo, mice; conditions: single s.c. injection, 2 mg/kg; 24 hours after 90% stenosis
# Protocol: In a complimentary experiment, mice returned to normal activity after being subjected to stenosis of 90% of the carotid artery. 24 hours later mice were sacrificed. Sections of the carotid artery were analyzed by MSB (Martin, Scarlet, Blue) staining. In the treatment group, following a single s.c. injection of the peptides, almost no fibrin (thrombus) was formed, while in the control group large arterial thrombus was observed. The results are exemplified in FIG. 6B for a control mouse (left panel) and a mouse treated with 2 mg/kg of the peptide set forth in SEQ ID NO: 4 (right panel).
# [2] = system: B16 mouse melanoma tumors; experiment: Tumor vascularization, MSB stained tumor sections; format: in vivo, mice; conditions: MSB staining
# [3] = system: procoagulant effect of heparanase; experiment: Heparanase-induced coagulation activation in ICR mice, plasma TAT ELISA; format: in vivo; conditions: heparanase 0.5 mg/kg i.p.; peptide 1 or 2 mg/kg s.c. after 30 min; blood after 4 hours
# Protocol: (§1) Thrombin-antithrombin complex (TAT) complex was evaluated according to the manufacturer recommendations by Enzygnost® TAT micro ELISA purchased from Siemens (Marburg, Germany). D-dimer assay was performed on the STA-R evolution analyzer (Diagnostica Stago) using recombinant STA-LIATEST D-DI kit (Diagnostica Stago).
# Heparanase (Hepa) was injected intra-peritoneal to ICR mice at a dose of 0.5 mg/kg. After 30 min. peptides corresponding to SEQ ID NOs: 2-5 and 7 were injected at a dose of 1 mg/kg (dashed fill) or 2 mg/kg (solid fill) subcutaneously between the shoulders, into the loose skin over the neck. Blood was drawn after 4 hours, and the plasma was analyzed by ELISA for thrombin-antithrombin (TAT) levels.
# coagulation activation = experiment: Intra-peritoneal heparanase injection to ICR mice, plasma TAT, D-Dimer, IL-6; format: in vivo; conditions: 0.5 mg/kg i.p.; blood after 4 hours
# Protocol: as §1
# Material and method used as in Example 1. Heparanase (Hepa) was injected intra-peritoneal at a dose of 0.5 mg/kg to ICR mice. After 4 hours blood was drawn and the plasma was studied by ELISA to thrombin-antithrombin complex (TAT), D-Dimer as markers of coagulation activation and IL-6 as marker of sepsis severity. Please note that when compared with the control group (PBS) heparanase (Hepa) increased the levels of TAT and D-Dimer in a similar magnitude to that of LPS injected at a dose of 5 mg/kg that cause a moderate sepsis (FIG. 1A, B).
Molecule,clot formation / thrombus distal to the IVC ligation (IVC thrombus),procoagulant effect of heparanase (plasma TAT levels) [3],also measured
"AEICLLPLDYGPCR [SEQ ID NO: 4, peptide derived from TFPI-2]",absent,–,fibrin (thrombus) formation in carotid artery [1]: early thrombus; tumor vascularization [2]: little to null vascularization
"ICLLPLDYGPCRAL [SEQ ID NO: 3, peptide derived from TFPI-2]",absent,–,–
"NANNFYTWEAC [SEQ ID NO: 7, peptide derived from TFPI-2]",–,partially inhibited,–
"NNAEICLLPLDYGP [SEQ ID NO: 5, peptide derived from TFPI-2]",absent,–,–
"NNFYTWEACDDACW [SEQ ID NO: 2, peptide derived from TFPI-2]",–,partially inhibited,–
B1,–,–,D-Dimer level compared with control group (PBS) (coagulation activation): increased; IL-6 level compared with control group (coagulation activation): did not increase; TAT level compared with control group (PBS) (coagulation activation): increased
